Assay results as given in US10125135B2, “Chemical compounds” (AstraZeneca AB, priority 2016, dated 2018).

Assay: Human plasma protein binding, equilibrium dialysis (RED)
Format: in vitro ADME
Details: dialysis for 18 hours
Description: Human Plasma Protein Binding
The automated equilibrium dialysis assay in human plasma uses the RED (Rapid Equilibrium Dialysis) Device and sample handling. The assay generally runs over two to three days including delivery of results. After dialysis for 18 hours, plasma and buffer samples are prepared for analysis by liquid chromatography and mass spectrometry. Samples are generally tested in singlicates and quantified by LC/MSMS by using a 7-point calibration curve in plasma. The compounds are pooled together in plasma pools up to 10 compounds. Three reference compounds are used in each run, Propranolol, Metoprolol and Warfarin. Warfarin is used as a control in each pool and Propranolol and Metoprolol are placed randomly in each run. An in-house Excel macro is used for preparation of files for the robot and the mass spectrometer and also used for the calculations of fraction unbound (fu %) in plasma.

Row | Compound | Human plasma protein binding (% free)
1 | COc1cc(OCCN2CC(CF)C2)ccc1[C@@H]1c2ccc3[nH]ncc3c2C[C@@H](C)N1CC1(F)CC1 [Example 6, (6S,8R)-7-((1-fluorocyclopropyl)methyl)-6-(4-(2-(3-(fluoromethyl)azetidin-1-yl)ethoxy)-2-methoxyphenyl)-8-methyl-6,7,8,9-tetrahydro-3H-pyrazolo[4,3-f]isoquinoline] | 21
2 | COc1cc(OCCN2CC(CF)C2)ccc1[C@@H]1c2ccc3[nH]ncc3c2C[C@@H](C)N1CC(C)C [Example 9, (6S,8R)-6-(4-(2-(3-(fluoromethyl)azetidin-1-yl)ethoxy)-2-methoxyphenyl)-7-isobutyl-8-methyl-6,7,8,9-tetrahydro-3H-pyrazolo[4,3-f]isoquinoline] | 52
3 | C[C@@H]1Cc2c(ccc3[nH]ncc23)[C@@H](c2ccc(OCCN3CC(CF)C3)cn2)N1CC(F)F [Example 51, (6S,8R)-7-(2,2-difluoroethyl)-6-(5-(2-(3-(fluoromethyl)azetidin-1-yl)ethoxy)pyridin-2-yl)-8-methyl-6,7,8,9-tetrahydro-3H-pyrazolo[4,3-f]isoquinoline] | 49
4 | C[C@@H]1Cc2c(ccc3[nH]ncc23)[C@@H](c2ccc(OCCN3CC(CF)C3)cn2)N1CC(F)(F)F [Example 49, (6S,8R)-6-(5-(2-(3-(fluoromethyl)azetidin-1-yl)ethoxy)pyridin-2-yl)-8-methyl-7-(2,2,2-trifluoroethyl)-6,7,8,9-tetrahydro-3H-pyrazolo[4,3-f]isoquinoline] | 23
5 | COc1cc(OCCN2CC(CF)C2)ccc1[C@@H]1c2ccc3[nH]ncc3c2C[C@@H](C)N1CC(C)(C)F [Example 5, (6S,8R)-7-(2-fluoro-2-methylpropyl)-6-(4-(2-(3-(fluoromethyl)azetidin-1-yl)ethoxy)-2-methoxyphenyl)-8-methyl-6,7,8,9-tetrahydro-3H-pyrazolo[4,3-f]isoquinoline] | 6.2
6 | C[C@@H]1Cc2c(ccc3[nH]ncc23)[C@@H](c2ccc(OCCN3CC(CF)C3)cn2)N1CC1(F)CC1 [Example 8, (6S,8R)-7-((1-fluorocyclopropyl)methyl)-6-(5-(2-(3-(fluoromethyl)azetidin-1-yl)ethoxy)pyridin-2-yl)-8-methyl-6,7,8,9-tetrahydro-3H-pyrazolo[4,3-f]isoquinoline] | 34
